Results on one compound are retold here after article PMC2362735, “New semisynthetic vinca alkaloids: chemical, biochemical and cellular studies” (British Journal of Cancer, 1999).

For orientation: T/C means the ratio of treated to control.

For data set [1], the system named is tubulin/microtubule, PFK-bundled microtubules. As to the kind of experiment: Tubulin polymerization with or without PFK (bundled vs single microtubules): turbidity and pelleting with SDS-PAGE. The settings on record: 10 M tubulin, 2 M drug. The data set is classed as biochemical, calf. The text has this:
The numerous antimitotic drugs already developed and therapeu- tically used for a large number of pathologies belong to different classes based on their chemical structure and other distinctive features. Antimitotic drugs usually target the tubulin/microtubule network of the cytoskeleton that is formed by assembly of cyto- plasmic tubulin dimers. The stability of the different microtubular structures varies considerably; some of their functions depend on their lability. The lability is augmented by the extreme sensitivity to various drugs. Several synthetic and natural compounds interact specifically with tubulin and/or microtubule, fundamentally destroying its dynamic character and leading to cell death. […] Because of their extensive clinical use, it is important to synthesize additional agents having at least the same biological activity. […] Nevertheless, it is unclear yet how the anti-calmodulin activity of these drugs is related to their desired and undesired pharmacological effects. […] The synthesis of the KAR derivatives are presented. […] Taxol, GTP and trifluoperazine were purchased from Sigma. All organic reagents for synthesis of the new compounds were obtained from Aldrich and were of the highest grade. All other chemicals were reagent grade commercial preparations. […] Tubulin was stored in 1 M sucrose, 10 mM sodium phosphate buffer, 0.5 mM magnesium chloride and 0.1 mM GTP, pH 7.0, at -80C and dialysed against the appropriate buffer before use. […] PFK, aldolase and glycerol-3-phosphate dehydrogenase- triosephosphate isomerase purified from rabbit skeletal muscle were purchased in ammonium sulphate suspensions from Sigma or Boehringer. The enzyme suspensions were centrifuged at 10 000g for 5 min. The pellets were suspended in the appropriate buffer, then the enzymes were gel filtered or dialysed in the same buffer to remove ammonium sulphate. […] (Figure 1B; R1 , CH3; R2 , CH2 CH2 Cl). […] After 2 h incubation at room temperature, 200 ml dried toluene was added to the reaction mixture. […] The mixture was stirred for 30 min. After separation of the organic phase, it was washed with water (3 x 30 ml) and dried with potassium sulphate and evaporated on a water bath of 35-40C at 20-27 hPa. The resulting material was chromatographed on silica gel (500 g, bead size of 0.040- 0.063 mm) column (30 mm x 500 mm) using ethyl acetate/ethanol (9:1) mixture as eluent. […] The mixture was kept for 4 h at room temperature and then evaporated on a water bath at 40C under a vacuum of 80 hPa to a final volume of 5-6 ml. […] (Figure 1B, R1 , CHO; R2 , CH2 CH2 Cl). […] Synthesis of KAR-4 [3-allyl-2,4-dioxo-3,5-spiro-oxazolidino- 4-deacetoxy-vinblastine] (Figure 1B; R1 , CH3; R2 , CH2 CH=CH2 ). […] NMR measurements were carried out on a Varian Unity plus-500 instrument (500 MHz for 1H and 125 MHz for 13C) in DMSO. Chemical shifts were determined relative to dTMS = 0.00 p.p.m. 1H and 13C signal assignments were verified by a concerted use of two-dimensional 1H-1H and 1H-13C shift correlation methods (DQFCOSY, HSQC, HMBC) and NOESY experiments. The gradient-enhanced DQFCOSY, HSQC, HMBC and NOESY experiments were recorded by using the standard spectrometer software package. A mixing time of tmix = 0.5 s was used for the NOESY experiments. […] Mass spectrum was recorded on a Kratos MS 80 instrument using FAB.

Data set [2] has as its system mouse leukaemia P388. More on the design: method as in Orosz et al, 1997a. The settings on record: ref Orosz et al, 1997a, cited from earlier work.

Regarding `CC[C@]1(O)C[C@@H]2CN(CCc3c([nH]c4ccccc34)[C@@](C(=O)OC)(c3cc4c(cc3OC)N(C)[C@@H]3[C@]45CCN4CC=C[C@@](CC)(C[C@@]36OC(=O)N(CCCl)C6=O)[C@H]45)C2)C1` [KAR-2, 3′-(β-chloroethyl)-2′,4′-dioxo-3,5′-spiro-oxazolidino-4-deacetoxy-vinblastine], in data set [1] (20 µM taxol, no PFK, SDS-PAGE of supernatant and pellet), the “tubulin partition in pelleting experiment, without PFK” value is “practically all tubulin appears in the super- natants”. Besides, the “tubulin partition in pelleting experiment, with PFK (bundled microtubules)” value in data set [1] (2 M PFK, 20 µM taxol, SDS-PAGE of supernatant and pellet) is “virtually no depolymer- izing effect”. In data set [1] (2 M PFK, turbidity at 350 nm), the “tubulin assembly by turbidity in the presence of PFK” value is “PFK can overcome the inhibitory effect of KAR-2 on tubulin polymerization”. Further, in data set [2] (P388, 1 mg kg-1, eightfold treatment), the T/C is 174%. Besides, the “neurotoxic side-effects (e.g. paralysis of bladder or lower extremities)” value in data set [2] (P388 in vivo tests) is recorded as “did not induce neurotoxic side-effects”.
